Assay results reported in PMC11725774 (Cancer Research Communications, 2025).
Where two headings read alike, the source gives them in different places.

Experiments:
MOLM-14 cells (parental) = assay: Growth inhibition of AML cell line; assay type: cell-based, human; settings: Homo sapiens, MOLM-14
Protocol: (§1) MV-4-11 cells expressing NRAS^G12D were prepared by transduction with a lentiviral vector encoding the NRAS^G12D mutation. Assays using a panel of parental Ba/F3 into which an additional copy of either WT or a mutant form of FLT3 was introduced were performed at Kyinno Biotechnology Co., Ltd. All cell lines were short tandem repeat authenticated at ATCC or at DSMZ when originally obtained, and no further authentication was done after receipt of the cells in the laboratory.
(§2) Assays using Ba/F3 cells expressing WT and mutant forms of FLT3 were performed by Kyinno Biotechnology. The cells were cultured in the medium recommended by the source for each cell line. Growth inhibition assays were performed using either Cell Titer 96 Aqueous One Solution Cell Proliferation assay (Promega, # G3581) or CCK8 (Dojindo, # CK-04). […] IC50 values were determined from growth inhibition curves fitted using GraphPad Prism and a nonlinear regression model with sigmoidal dose response. Unless otherwise indicated, data are presented as mean ± SEM.

TUS/R line 1 (MOLM-14) = assay: Growth inhibition of TUS-resistant subline; assay type: cell-based; settings: Homo sapiens, MOLM-14, read-out: IC50 (nmol/L), Mean ± SEM, TUS/R line 1
TUS/R line 2 (MOLM-14) = assay: Growth inhibition of TUS-resistant subline; assay type: cell-based; settings: Homo sapiens, MOLM-14, read-out: IC50 (nmol/L), Mean ± SEM, TUS/R line 2
TUS/R line 3 (MOLM-14) = assay: Growth inhibition of TUS-resistant subline; assay type: cell-based, human; settings: Homo sapiens
TUS/R line 4 (MOLM-14) = assay: Growth inhibition of TUS-resistant subline; assay type: cell-based, human; settings: Homo sapiens
TUS/R MOLM-14 cells = assay: Growth inhibition of TUS-resistant sublines versus parental; assay type: cell-based, human; settings: Homo sapiens, MOLM-14; read-out: IC50, cells with acquired resistance
[1] = system: MV-4-11 NRAS G12D Clone 15; assay: Growth inhibition of NRAS G12D clone; assay type: cell-based, human
Protocol: as §1, §2

[2] = system: MV-4-11 NRAS G12D Clone 1; assay: Growth inhibition of NRAS G12D clone; assay type: cell-based, human
Protocol: as §1, §2

[3] = system: MV-4-11 NRAS G12D Clone 4; assay: Growth inhibition of NRAS G12D clone; assay type: cell-based, human; settings: Homo sapiens, MV4-11; MV-4-11 NRAS G12D, high expression; mean ± SEM; read-out: GI50 (nM) Clone 4
Protocol: as §1, §2

[4] = Pharmacokinetics and tissue distribution in mice; assay type: in vivo
Pharmacokinetics in dog = assay type: in vivo
CYP2C8 = CYP2C8 (Homo sapiens, UniProt P10632); assay: CYP inhibition; assay type: in vitro ADME
CYP3A = assay: CYP inhibition; assay type: in vitro ADME; settings: human
Plasma protein binding = assay type: in vitro ADME; settings: mouse, rat, dog, and human plasma
[5] = Metabolism by liver microsomes; assay type: in vitro ADME, human
[6] = Repeat daily dose toxicity and safety pharmacology in rats; assay type: in vivo
Source text: (§3) In both species, all adverse events were reversible. There were no alterations in clinical chemistry parameters. Neuropharmacology and respiratory function assessment in rats disclosed no concerns.

[7] = Repeat daily dose toxicity in dogs; assay type: in vivo
Source text: as §3

[8] = system: MOLM-13 cells inoculated orthotopically; assay: Orthotopic AML xenograft survival; assay type: in vivo, NOD/SCID mice; settings: oral TUS 30 mg/kg every day; vehicle 37 days
Protocol: (§4) For subcutaneous inoculation, MV-4-11 and MOLM-14 FLT3-ITD/F691L cells were mixed with BD Matrigel Matrix (1:0.5 ratio), and 2 to 5 × 10^6 cells in 0.15 mL were inoculated subcutaneously in NOD/SCID mice. Tumor size was assessed using a Vernier caliper 2 to 3 times weekly and volume was calculated using the formula for an ellipsoid sphere. For orthotopic inoculation, MOLM-14-Luc/GFP cells (2 × 10^6 cells in 0.03 mL PBS) or MV-4-11-Luc and MOLM-13-Luc cells (1 × 10^6 cells in 50 μL Hank’s balanced salt solution) were injected into the left tibia of NOD/SCID mice. Tumor growth was monitored weekly by bioluminescence imaging using an IVIS Lumina Series III In vivo imaging system (PerkinElmer Inc.). The Institutional Animal Care and Use Committee of the Hanmi Research Center approved the animal study protocol.
(§5) For both subcutaneous and bone marrow orthotopic models, after confirming tumor formation by palpation or bioluminescence imaging, mice were randomly assigned into experimental groups.
(§6) A P value less than 0.05 was considered statistically significant.

[9] = system: MOLM-14 cells inoculated orthotopically; assay: Orthotopic AML xenograft survival; assay type: in vivo, NOD/SCID mice; settings: oral TUS 30 mg/kg every day; vehicle 17 days
Protocol: as §4, §5, §6

[10] = system: MV-4-11 cells inoculated orthotopically; assay: Orthotopic AML xenograft survival; assay type: in vivo, NOD/SCID mice; settings: oral TUS 30 mg/kg every day; vehicle 42 days
Protocol: as §4, §5, §6

[11] = system: MCL1 in parental MOLM-14 cells; assay: Western blot of apoptotic proteins; settings: 75 nmol/L TUS, 48-hour exposure
[12] = system: BIM in parental MOLM-14 cells; assay: Western blot of apoptotic proteins; settings: 75 nmol/L TUS, 48-hour exposure
[13] = 13 to […]-fold increase in NRAS G12D expression
[14] = Homo sapiens, MV4-11, MV-4-11 NRAS G12D, mean ± SEM
[15] = mouse, plasma, mice, oral doses of 1, 3, 10, and 30 mg/kg

Chain of CYP2C8 (P10632 whole entry): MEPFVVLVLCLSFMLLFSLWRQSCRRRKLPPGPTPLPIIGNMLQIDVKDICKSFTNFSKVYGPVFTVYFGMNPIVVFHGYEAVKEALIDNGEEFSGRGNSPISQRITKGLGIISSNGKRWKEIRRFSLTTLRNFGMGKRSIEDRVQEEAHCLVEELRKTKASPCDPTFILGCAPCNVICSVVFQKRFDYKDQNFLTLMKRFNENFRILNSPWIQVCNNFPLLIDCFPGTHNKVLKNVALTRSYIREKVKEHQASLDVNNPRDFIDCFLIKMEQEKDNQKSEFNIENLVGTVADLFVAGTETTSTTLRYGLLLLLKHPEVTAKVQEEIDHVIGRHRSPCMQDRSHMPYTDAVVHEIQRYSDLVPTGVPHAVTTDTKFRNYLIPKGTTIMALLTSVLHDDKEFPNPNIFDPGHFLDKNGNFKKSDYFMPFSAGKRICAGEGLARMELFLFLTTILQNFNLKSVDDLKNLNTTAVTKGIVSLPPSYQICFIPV

Question: Which results are given for Cc1ccc2c(-c3nc(Nc4cc(CN5C[C@@H](C)N[C@@H](C)C5)cc(C5CC5)c4)ncc3Cl)c[nH]c2c1 [TUS, Tuspetinib]?
Answer: IC50 (MOLM-14 cells (parental); growth inhibition, three independent experiments, read-out: IC50 (nmol/L), Mean ± SEM, MOLM-14 parental): 2.3 ± 0.6 nmol/L; GI50 (MOLM-14 cells (parental); mean ± SEM (Supplementary Table 6), read-out: GI50 (nM) Parental MOLM-14 (converted)): 2.3 ± 0.6 nM; GI50 (MOLM-14 cells (parental); mean ± SD (Supplementary Table 4), read-out: GI50): 2.9 ± 1.2 nM; IC50 (TUS/R line 1 (MOLM-14)): 183 ± 69.5 nmol/L; IC50 (TUS/R line 2 (MOLM-14)): 120 ± 29.4 nmol/L; GI50 (TUS/R line 3 (MOLM-14); MOLM-14, read-out: GI50 (nM) TUS/R line 3, mean ± SEM (Supplementary Table 6)): 108 ± 24 nM; IC50 (TUS/R line 3 (MOLM-14); MOLM-14, read-out: IC50 (nmol/L), Mean ± SEM, TUS/R line 3): 108 ± 24 nmol/L; GI50 (TUS/R line 4 (MOLM-14); MOLM-14, read-out: GI50 (nM) TUS/R line 4, mean ± SEM (Supplementary Table 6)): 144 ± 31 nM; IC50 (TUS/R line 4 (MOLM-14); MOLM-14, read-out: IC50 (nmol/L), Mean ± SEM, TUS/R line 4): 144 ± 31.5 nmol/L; IC50 (TUS/R MOLM-14 cells): 139 ± 38.6 nM; change in sensitivity, clone 15 [1, 13]: did not alter sensitivity; GI50 [1, 14]: 7.7 ± 3.1 nM; change in sensitivity, clone 1 [2, 13]: did not alter sensitivity; GI50 [2, 14]: 8.7 ± 3 nM; GI50 [3]: 69.9 ± 7.4 nM; dose proportionality of systemic exposure ([4]; mice, oral 1 to 30 mg/kg): greater than dose proportional; clearance ([4]; mouse, plasma, male mice, single intravenous dose of 3 mg/kg): 5 mL/min/kg; Vd ([4]; mouse, plasma, male mice, single intravenous dose of 3 mg/kg, read-out: Vss): 2.4 L/kg; half-life ([4]; mouse, plasma, male mice, single intravenous dose of 3 mg/kg, read-out: terminal plasma half-life (converted)): 5.5 h; Tmax [4, 15]: 1 to 4 h; bioavailability [4, 15]: 21.4 to 47.2%; dose proportionality of AUC (Pharmacokinetics in dog): linearly proportional to dose; bioavailability (Pharmacokinetics in dog; in vivo, oral): 99%; Ki (CYP2C8): < 1000 nM; Ki (CYP3A): < 1000 nM; Plasma protein binding (Plasma protein binding): high; metabolism by human liver microsomes [5]: metabolized by human liver microsomes; Neuropharmacology and respiratory function assessment [6]: no concerns; main target organ of toxicity ([6]; repeat daily dose up to 4 weeks): lymphoid organs; main toxicity findings ([7]; dogs, repeat daily dose up to 4 weeks): leucocyte depletion, decreased thymus and spleen weights, and tremors; cardiovascular effects ([7]; single dose and 4-week dog toxicology studies): No treatment-related cardiovascular effects; median survival [8]: 75 days; median survival [9]: 65 days; median survival [10]: 147 days; reduction of MCL1 [11]: 70%; increase of BIM [12]: 10 fold
